Laboratory results reported in US20180231554A1, “PROGRAMMED CELL DEATH (PD-1) INHIBITOR THERAPY FOR PATIENTS WITH PD-1-EXPRESSING CANCERS” (The Brigham and Women's Hospital, Inc., priority 2015, published 2018).

System: melanoma patients
Experiment: Survival and IHC biomarker expression in melanoma patients undergoing anti-PD-1 therapy
Format: in vivo, human
Settings: for progression-free survival: greater than 25% vs less than 25% 4E-BP1 expression in pre-treatment biopsies; for progression-free survival / overall survival: Kaplan-Meier; for patients still alive 35 months after initiation of treatment: melanoma patients with >25% p-SHP2 expression in pre-treatment biopsies; for overall survival: n=34, >25% vs less than 25% melanoma-p-S6 expression in pre-treatment biopsies
Protocol: As used herein, the term “progression-free survival” refers to the time from the first administration of anti-PD-1-based therapy to the first documented radiographic evidence of progressive disease. The term “overall survival” is defined as the time from the first administration of anti-PD-1 therapy to the date of death, regardless of cause.
Tumor cell lines, culture methods and clinical specimens: Human G3361 and C8161 and murine B16-F10 melanoma cell lines were cultured in RPMI-1640 medium (Life Technologies) supplemented with 10% (v/v) fetal bovine serum (Life Technologies) and 1% (v/v) penicillin streptomycin (Life Technologies) and human MKL-1, MKL-2, MS-1, and WaGa Merkel cell carcinoma cell lines in RPMI-1640 medium supplemented with 20% (v/v) fetal bovine serum and 1% (v/v) penicillin streptomycin. Clinical melanoma specimens were obtained from patients in accordance with the Institutional Review Boards of Partners Health Care Research Management, Boston, Mass. and the University of Zurich, Switzerland. Informed consent was obtained from all subjects.
Immunohistochemical (IHC) staining methods: Tumor biopsy sections were deparaffininzed in xylene and subsequently rehydrated with 100%, 95%, and 75% ethanol and deionized H2O. Sections were placed in target retrieval solution (Dako) and boiled in a Pascal pressure chamber (Dako) at 125° C. for 30 seconds, 90° C. for 10 seconds, and then cooled down to room temperature. IHC was performed using the two-step peroxidase or alkaline phosphatase method. For peroxidase-based detection of p-S6 and p-AKT, sections were incubated with 1 ug/ml rabbit anti-p-56 ribosomal protein or rabbit anti-p-AKT (Ser473) antibody (Cell Signaling Technology) at 4° C. overnight and then incubated with a 1:200 dilution of goat anti-rabbit IgG peroxidase conjugated antibody (Vector Laboratories) at room temperature for 1 hour. Immunoreactivity was detected using the NovaRed peroxidase substrate (Vector laboratories), according to the manufacturer's protocol. For alkaline phosphatase-based detection of t-SHP2, p-SHP2, p-S6, p-AKT, p-PI3K, p-PDK1, 4E-BP1, or p-eIF-4G, sections were incubated with a 1:200 dilution of t-SHP2, p-SHP2 (Santa Cruz Biotechnology), p-S6, p-AKT, p-PI3K, p-PDK1, 4E-BP1, or p-eIF-4G antibody (Cell Signaling Technology) for 1 hour at room temperature, followed by incubation with a 1:100 dilution of biotin-conjugated secondary antibody (R&D Systems) for 30 minutes at room temperature and a subsequent incubation with a 1:100 dilution of streptavidin-alkaline phosphatase (Roche) for 30 minutes at room temperature. Immunoreactivity was detected using the FAST Red Chromogen System (Biolegend), per the manufacturer's instructions. Nuclear counterstaining (blue) was performed with Meyer's haemalum for both methods.
Imaging and quantification of IHC tumor sections: All images of IHC-stained sections were analyzed with a Nikon microscope (DXM 1200F) and captured using the NIS-Elements software (BR 2.30 Nikon). Expression of p-S6 and 4E-BP1 antigens was graded by n=2-3 independent investigators blinded to the study outcome on a scale of 0-4 (0: no p-S6 expression by melanoma cells; 1: p-S6 expression in 1%-25%; 2: 26%-50%; 3:51%-75%; 4: >75% of melanoma cells). For each slide, at least two areas with the highest numbers of 5-100(+) and MART-1(+) melanoma cells, as determined in serial sections, were selected for analysis.

| Substance | progression-free survival | patients still alive 35 months after initiation of treatment [%] | overall survival |
| --- | --- | --- | --- |
| Nivolumab | significantly increased | 100 | significantly enhanced |
| Pembrolizumab | significantly increased | 100 | significantly enhanced |
